Key:
Type in all cases: cell-based
[1] = molecular target: T1, Human VR1 Receptor (Homo sapiens, UniProt Q8NER1); assay: Inhibition of capsaicin-induced activation of VR1; conditions: mean ± SEM, n = number of experiments
From the text: (§1) Methods for assaying compounds capable of inhibiting VR1 are well known to those skilled in the art, for example, those methods disclosed in U.S. Pat. No. 6,239,267 to Duckworth et al.; U.S. Pat. No. 6,406,908 to McIntyre et al.; or U.S. Pat. No. 6,335,180 to Julius et al.

[2] = molecular target: T1, Human VR1 Receptor; assay: Inhibition of pH-induced activation of VR1; conditions: mean ± SEM, n = number of experiments
From the text: as §1

[3] = molecular target: T2, rat mGluR5 (Rattus norvegicus, UniProt P31424); assay: CHO assay: calcium mobilization flux (FLIPR) in CHO-rat mGluR5 cells in the presence of glutamate; conditions: at a concentration of 10 μM, 10 uM glutamate
T2 construct: expressed in transfected cells; host or cells: CHO cells (CHO-rat mGluR5, kept under Geneticin selection)
Procedure: 40,000 CHO-rat mGluR5 cells/well were plated into 96 well plate (Costar 3409, Black, clear bottom, 96 well, tissue culture treated) for an overnight incubation in Dulbelcco's Modified Eagle's Medium (DMEM, pH 7.4) and supplemented with glutamine, 10% FBS, 1% Pen/Strep, and 500 ug/ml Geneticin. CHO-rat mGluR5 cells were washed and treated with Optimem medium and incubated for 1–4 hours prior to loading cells. […] The plates containing the CHO-rat mGluR5 cells were then transferred to Fluorometric Imaging Plate Reader (FLIPR) (commercially available from Molecular Devices Corporation of Sunnyvale, Calif.) for the assessment of calcium mobilization flux in the presence of glutamate and in the presence or absence of test compounds. After monitoring fluorescence for 15 seconds to establish a base line, DMSO solutions containing various concentrations of the test compound diluted in loading buffer (0.05 mL of 4× dilutions for the competition curves) were added to the cell plate and fluorescence was monitored for 2 minutes. […] Plate fluorescence is then monitored for an additional 60 seconds after agonist addition. […] In each experiment, fluorescence is monitored as a function of time and the data analyzed using Microsoft Excel and GraphPad Prism. […] In each experiment each data point was determined two times.

T1 sequence (Q8NER1 whole entry): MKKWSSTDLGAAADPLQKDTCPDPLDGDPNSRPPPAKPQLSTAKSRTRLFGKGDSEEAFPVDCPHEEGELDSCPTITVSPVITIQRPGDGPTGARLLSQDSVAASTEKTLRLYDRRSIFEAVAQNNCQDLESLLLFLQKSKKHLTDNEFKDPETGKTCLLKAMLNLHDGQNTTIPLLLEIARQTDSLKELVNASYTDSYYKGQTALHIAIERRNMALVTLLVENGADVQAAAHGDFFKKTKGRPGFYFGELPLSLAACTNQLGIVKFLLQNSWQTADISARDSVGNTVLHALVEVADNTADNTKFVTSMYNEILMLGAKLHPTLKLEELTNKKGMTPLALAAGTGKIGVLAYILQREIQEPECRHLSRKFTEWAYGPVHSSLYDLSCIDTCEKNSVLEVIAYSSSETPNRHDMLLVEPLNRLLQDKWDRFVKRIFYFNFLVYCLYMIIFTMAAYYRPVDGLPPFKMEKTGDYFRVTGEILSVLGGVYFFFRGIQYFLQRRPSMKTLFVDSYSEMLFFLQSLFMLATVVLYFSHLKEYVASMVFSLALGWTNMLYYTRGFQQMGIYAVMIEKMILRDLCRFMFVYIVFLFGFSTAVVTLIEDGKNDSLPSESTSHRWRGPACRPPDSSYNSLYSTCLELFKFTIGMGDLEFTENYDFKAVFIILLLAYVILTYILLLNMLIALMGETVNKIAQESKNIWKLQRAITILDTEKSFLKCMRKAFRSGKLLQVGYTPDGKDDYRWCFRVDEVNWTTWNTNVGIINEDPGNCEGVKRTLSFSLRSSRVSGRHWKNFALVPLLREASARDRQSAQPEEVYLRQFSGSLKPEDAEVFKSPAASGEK
T2 sequence (P31424 21-1203): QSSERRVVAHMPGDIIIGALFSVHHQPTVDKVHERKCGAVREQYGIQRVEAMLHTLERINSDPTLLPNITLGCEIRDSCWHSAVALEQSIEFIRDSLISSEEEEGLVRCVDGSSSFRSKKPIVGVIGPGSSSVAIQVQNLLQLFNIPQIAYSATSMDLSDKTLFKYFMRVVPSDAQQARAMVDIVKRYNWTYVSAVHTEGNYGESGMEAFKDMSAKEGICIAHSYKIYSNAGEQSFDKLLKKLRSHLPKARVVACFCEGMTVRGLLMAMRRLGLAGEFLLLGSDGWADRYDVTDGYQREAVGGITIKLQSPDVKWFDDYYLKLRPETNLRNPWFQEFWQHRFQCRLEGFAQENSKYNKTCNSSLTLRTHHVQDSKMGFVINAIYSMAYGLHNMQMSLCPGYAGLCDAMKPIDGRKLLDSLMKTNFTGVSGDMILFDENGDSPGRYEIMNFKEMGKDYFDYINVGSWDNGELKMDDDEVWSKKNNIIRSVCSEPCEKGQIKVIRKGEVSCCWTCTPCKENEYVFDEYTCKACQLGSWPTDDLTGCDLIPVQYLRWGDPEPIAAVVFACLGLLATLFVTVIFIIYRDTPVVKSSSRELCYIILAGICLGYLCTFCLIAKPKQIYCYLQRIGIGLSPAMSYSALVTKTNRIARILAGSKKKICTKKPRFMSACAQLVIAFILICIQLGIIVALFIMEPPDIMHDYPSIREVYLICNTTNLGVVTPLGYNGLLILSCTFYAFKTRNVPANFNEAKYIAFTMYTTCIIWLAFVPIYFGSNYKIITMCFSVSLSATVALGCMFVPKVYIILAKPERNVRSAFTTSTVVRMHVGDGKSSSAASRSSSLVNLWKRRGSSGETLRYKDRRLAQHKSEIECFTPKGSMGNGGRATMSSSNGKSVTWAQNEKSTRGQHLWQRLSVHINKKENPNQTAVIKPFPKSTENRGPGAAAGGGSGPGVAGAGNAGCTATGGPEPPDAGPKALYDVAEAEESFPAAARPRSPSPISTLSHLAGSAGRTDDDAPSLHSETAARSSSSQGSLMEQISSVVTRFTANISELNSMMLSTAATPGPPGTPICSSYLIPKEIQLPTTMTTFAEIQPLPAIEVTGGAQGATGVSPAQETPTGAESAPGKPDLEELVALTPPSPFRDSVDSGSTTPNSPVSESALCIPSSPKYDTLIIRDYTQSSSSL

Compound | IC50 [1] [nM] | IC50 [2] [nM] | inhibition of mGluR5 [3]
CC(C)(C)c1ccc(NC(=O)N2CCN(c3ncccc3F)CC2)cc1 | 1.3 ± 1.2 | 5.4 ± 2.5 | 
Cc1cccc(CCNC(=O)N2CCN(c3ncccc3Cl)C[C@H]2C)c1C |  |  | inhibits

From patent publication US7071335B2, “2-pyridinyl-1-piperazine therapeutic agents useful for treating pain” (Euro-Celtique S.A., priority 2002, dated 2006)
